These results are taken from US20220144812A1, “QUINOLINE DERIVATIVES AND THEIR USE FOR THE TREATMENT OF CANCER” (Epizyme, Inc., priority 2019, published 2022).

Read-outs that look alike come from different tables or passages of the source.

For experiment [1], the system named is H3K18Ac in HB-CLS-2 cells. The experiment in a line: H3K18AC in-cell western (ICW) assay. Conditions: H3K18Ac in-cell western; read-out: CREBBP ICW IC50. It is filed as cell-based. Summed up: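 In-cell western: after methanol fixation, blocking, overnight 4° C anti-H3K18Ac staining, then 800CW secondary plus DRAQ5 for DNA content, integrated intensities were scanned at 800 and 700 nm. Before this, compound exposure lasted 2 hr at 37° C in HB-CLS-2 cells plated 16–24 hours earlier. Values expressed as IC50 (μM).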

In a further experiment the test system is 647V cells. The experiment in a line: High throughput proliferation (HTP) assay. It is filed as cell-based. Conditions: high throughput proliferation, read-out: CREBBP HTP IC50. Summed up:
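Proliferation IC50 (micromolar) derived from a 7-day CellTiter-Glo viable-cell readout in 647V cells exposed, in triplicate, to rising compound concentrations; cells grown in DMEM plus 15% heat-inactivated FBS at 37° C under 5% CO2.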

A further experiment concerns the target T1, CREBBP (1084-1701) (Homo sapiens, UniProt Q92793).
T1 construct: measured in the following biochemical assay using CREBBP (1084-1701); purchased
The experiment in a line: Biochemical assay for CREBBP (1084-1701), SAMDI. Conditions: SAMDI, read-out: CREBBP Biochemistry IC50. The method, boiled down:
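Acetyltransferase activity measured by SAMDI mass spectrometry after capture on biochip. Enzyme sat with compound 30 min at RT before acetyl-CoA and biotinylated H3 11-25 (K14R, K23R) peptide were added for 30 min at RT. Formic acid quench, bicarbonate neutralisation; IC50 values reported.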

The target of a further experiment is T2, EP300 (P300(1048-1664)) (Homo sapiens, UniProt Q09472).
T2 construct: P300(1048-1664)
T2 sequence (Q09472 1048-1664): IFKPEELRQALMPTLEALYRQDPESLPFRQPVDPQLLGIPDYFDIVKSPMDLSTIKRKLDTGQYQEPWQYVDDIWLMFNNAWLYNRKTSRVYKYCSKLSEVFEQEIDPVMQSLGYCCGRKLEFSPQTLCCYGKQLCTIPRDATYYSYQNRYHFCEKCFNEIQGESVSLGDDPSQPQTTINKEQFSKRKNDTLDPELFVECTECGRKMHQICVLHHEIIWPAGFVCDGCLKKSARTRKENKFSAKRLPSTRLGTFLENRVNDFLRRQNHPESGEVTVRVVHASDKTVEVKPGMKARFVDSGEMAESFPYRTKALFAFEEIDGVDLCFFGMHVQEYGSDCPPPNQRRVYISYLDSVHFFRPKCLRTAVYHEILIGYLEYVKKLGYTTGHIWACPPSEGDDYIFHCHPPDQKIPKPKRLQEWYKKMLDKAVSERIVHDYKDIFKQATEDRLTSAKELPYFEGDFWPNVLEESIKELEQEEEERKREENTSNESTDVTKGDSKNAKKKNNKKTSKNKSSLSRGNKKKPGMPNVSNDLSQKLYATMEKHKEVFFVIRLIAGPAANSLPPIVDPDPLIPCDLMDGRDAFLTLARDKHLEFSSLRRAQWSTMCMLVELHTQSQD
The experiment in a line: Biochemical assay for EP300, SAMDI. Particulars: EP300, SAMDI; read-out: EP300 Biochemistry IC50. From the text:
The following example describes materials and methods relating to a biochemical assay for EP300. IC50 values (micromolar (μM)) are summarized in Table 1, Table 2, and Table 3 under the column labeled: “EP300 Biochemistry IC50 (micromolar).”

T1 sequence (Q92793 1084-1701): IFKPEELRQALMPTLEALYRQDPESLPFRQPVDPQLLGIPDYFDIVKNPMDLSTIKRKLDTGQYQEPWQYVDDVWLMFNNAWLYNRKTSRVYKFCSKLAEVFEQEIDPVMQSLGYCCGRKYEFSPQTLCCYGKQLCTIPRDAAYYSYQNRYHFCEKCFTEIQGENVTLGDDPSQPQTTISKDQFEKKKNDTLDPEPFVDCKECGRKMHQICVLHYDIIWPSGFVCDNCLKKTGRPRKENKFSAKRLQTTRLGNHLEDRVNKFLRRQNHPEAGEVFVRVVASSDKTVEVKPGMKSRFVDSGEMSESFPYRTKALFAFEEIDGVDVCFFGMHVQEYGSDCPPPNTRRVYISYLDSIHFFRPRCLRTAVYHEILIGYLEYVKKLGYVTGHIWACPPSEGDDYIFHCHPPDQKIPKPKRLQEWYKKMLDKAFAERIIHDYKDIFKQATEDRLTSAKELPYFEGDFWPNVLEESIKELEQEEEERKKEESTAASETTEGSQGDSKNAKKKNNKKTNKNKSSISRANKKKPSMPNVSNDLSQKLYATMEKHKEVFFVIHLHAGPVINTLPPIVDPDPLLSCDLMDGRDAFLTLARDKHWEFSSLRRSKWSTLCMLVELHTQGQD

Broadly, the IC50 is the point on the concentration scale where inhibition reaches its midpoint. Consider `CCn1ncc(CN(C)C(=O)c2nc(-c3ccnc(Cl)c3)nc3ccc(NC)cc23)c1C` [Compound 87], for which the IC50 in experiment [1] is 1400 nM; with 647V cells (Homo sapiens, 647-V) it was 1400 nM; on CREBBP (1084-1701), 840 nM; at EP300 (P300(1048-1664)), 880 nM.
Consider `CCn1ncc(CN(C)C(=O)c2nc(-c3ccc4nc[nH]c4c3Cl)nc3ccc(COC)cc23)c1C` [Compound 89], for which the IC50 worked out at 1600 nM in experiment [1]; 1200 nM with 647V cells (Homo sapiens, 647-V); 180 nM at CREBBP (1084-1701); 1000 nM on EP300 (P300(1048-1664)).
Regarding `CCn1ncc(CN(C)C(=O)c2cc(-c3csc(C)n3)nc3ccc(Cl)cc23)c1C` [Compound 90], the IC50 in experiment [1] amounted to 1600 nM; with 647V cells it was 1500 nM; on CREBBP (1084-1701), 340 nM; at EP300 (P300(1048-1664)), 210 nM.
With `CCn1ncc(CN(C)C(=O)c2nc(-c3ccc(OCCCN(C)C(=O)OC(C)(C)C)c(C)c3Cl)nc3ccc(Cl)cc23)c1C` [Compound 93], the half-maximal inhibitory concentration (IC50) in experiment [1] stood at 1700 nM; in the experiment with 647V cells (Homo sapiens, 647-V) it was 1200 nM; on CREBBP (1084-1701), 140 nM; on EP300 (P300(1048-1664)) it was 68 nM.
In the same order, the values of `CCn1ncc(CN(C)C(=O)c2cc(-c3ccnc(N)c3)nc3ccc(Cl)cc23)c1C` [Compound 94] are 1700 nM, 1500 nM, 2100 nM and 1500 nM.
`CCn1ncc(CN(C)C(=O)c2nc(-c3ccc(OCCOC)cc3Cl)nc3ccc(Cl)cc23)c1C` [Compound 96]: the IC50 in experiment [1] was 1900 nM; with 647V cells (Homo sapiens, 647-V), 1800 nM; on CREBBP (1084-1701), 740 nM; on EP300 (P300(1048-1664)), 1500 nM.
As to `CCn1ncc(CN(C)C(=O)c2nc(-c3cc(C)cc(NCCN(C)C(=O)OC(C)(C)C)c3)nc3ccc(Cl)cc23)c1C` [Compound 99], the IC50 in experiment [1] amounted to 2000 nM; in the experiment on 647V cells (Homo sapiens, 647-V), 2100 nM; at CREBBP (1084-1701), 2200 nM; at EP300 (P300(1048-1664)), 2600 nM.
The matching figures for `CCn1ncc(CN(C)C(=O)c2nc(-c3cn[nH]c3C)nc3ccc(Cl)cc23)c1C` [Compound 100]: 2100 nM, 1600 nM, 11000 nM and 6300 nM.
`CCn1ncc(CN(C)C(=O)c2nc(-c3ccc(OCCO)c(OC)c3)nc3ccc(Cl)cc23)c1C` [Compound 102]: the concentration for half-maximal inhibition (IC50) was 2100 nM in experiment [1]; 2300 nM in the experiment on 647V cells (Homo sapiens, 647-V); 4000 nM on CREBBP (1084-1701); 4300 nM on EP300 (P300(1048-1664)).
In the same order, the values of `CCn1ncc(CN(C)C(=O)c2nc(-c3ccc4nc(C)n(C(=O)OC(C)(C)C)c4c3)nc3ccc(Cl)cc23)c1C` [Compound 104] are 2200 nM, 230 nM, 9200 nM and 13000 nM.
The matching figures for `CCn1ncc(CN(C)C(=O)c2nc(-c3cc(C#N)cc(NCCN(C)C(=O)OC(C)(C)C)c3)nc3ccc(Cl)cc23)c1C` [Compound 105]: 2400 nM, 1800 nM, 3300 nM and 2300 nM.
The matching figures for `CC1CCCc2c(CN(C)C(=O)c3cc(-c4cccc(Cl)c4)nc4ccc(Cl)cc34)cnn21` (stereo not drawn) [Compound 107]: 2500 nM, 6200 nM, 1100 nM and 590 nM.
Regarding `CCn1ncc(CN(C)C(=O)c2nc(-c3ccc(OCCOC)c(Cl)c3)nc3ccc(Cl)cc23)c1C` [Compound 108], the half-inhibitory concentration (IC50) in experiment [1] is 2500 nM; in the experiment with 647V cells (Homo sapiens, 647-V), 2200 nM; on CREBBP (1084-1701), 970 nM; on EP300 (P300(1048-1664)) it was 930 nM.
The matching figures for `CCn1ncc(CN(C)C(=O)c2nc(-c3cnc[nH]3)nc3ccc(Cl)cc23)c1C` [Compound 109]: 2500 nM, 3500 nM, 3900 nM and 1400 nM.
With `CCn1ncc(CN(C)C(=O)c2nc(-c3ccc(OCCCNC)cc3)nc3ccc(Cl)cc23)c1C` [Compound 110], the half-inhibitory concentration (IC50) is 2600 nM in experiment [1]; 1400 nM with 647V cells (Homo sapiens, 647-V); 3200 nM at CREBBP (1084-1701); 4400 nM on EP300 (P300(1048-1664)).
